Test results from patent publication US20240277705A1, “DOSAGE REGIMENS FOR ECUBECTEDIN” (PHARMA MAR S.A., priority 2021, published 2024).

Experiments:
[1] = tested on: RXF 1781L (hypernephroma, poorly differentiated); assay: Propidium iodide monolayer cell proliferation assay, RXF 1781L; type: cell-based, human; details: four days of treatment
Method: Working stock solution of PM14 was prepared in DMSO at a concentration of 1.042 mM and small aliquots were stored at −20° C. On each day of an experiment, a frozen aliquot of the working stock solution was thawed and stored at room temperature prior to and during treatment.
Subsequent dilutions were done with complete RPMI 1640 cell culture medium. DMSO stock solutions were first diluted 1:22 (corresponding to 4.5% v/v DMSO). Starting with this solution, serial dilutions in half-log steps with cell culture medium were done using an intermediate dilution plate. Finally, 10 μl taken from the intermediate dilution plate were transferred to 140 μl/well of the cell culture plate. […]
Cell proliferation assay: A modified propidium iodide (PI) based monolayer assay was used to assess the anti-cancer activity of the compounds (Dengler WA, Schulte J, Berger DP, Mertelsmann R, Fiebig HH, Anti-Cancer Drugs 1995, 6: 522-532). Briefly, cells were harvested from exponential phase cultures, counted and plated in 96 well flat-bottom microtiter plates at a cell density of 4,000 to 30,000 cells/well dependent on the cell line's growth rate. […] After an incubation period of 1-2 hours at room temperature, fluorescence (FU) was measured using the Enspire Multimode Plate Reader (excitation A=530 nm, emission A=620 nm) to quantify the amount of attached viable cells. […]

[2] = tested on: MRI-H-121 xenografts (human renal carcinoma tumor line); assay: MRI-H-121 mouse xenograft study, antitumor activity; type: in vivo, mice; details: 1.25 mg/kg i.v. days 0, 7 and 14
Method: Compounds: Vials of off-white lyophilized PM14 cake were stored at −20° C. The cake was reconstituted with 2 ml of water for injection (Sigma-Aldrich, Co) to a concentration of 0.5 mg/ml. Further dilutions were made with a 5% glucose solution for injection/USP (Baxter, Inc.). A clear PM14 solution was obtained.
Animals: Female athymic nu/nu mice between 4 to 6 weeks of age were purchased from Envigo (Barcelona, Spain).
Tumor line: MRI-H-121 is a human renal carcinoma tumor line, originally obtained from the DCT Tumor Bank. Developed by Dr. A. E. Bogden, Mason Research Institute MA and maintained as a serial transplanted tumor line in athymic nude mice. Original tissue came from a patient at U. of Mass. Med. Center.
Study groups: Briefly, 4 to 6 week-old female athymic nu/nu mice were subcutaneously implanted into their right flank with a MRI-H-121 tissue from serial transplanted donor mice. Tumors were removed from donor animals and were cut into fragments (3 mm^3). Tissue was debrided of membrane, hemorrhagic and necrotic areas, placed in Matrigel™ (Corning Incorporated Life Sciences) and subcutaneously implanted. Recipient mice were anesthetised by inhalation of isoflurane, a small incision into the skin of the back was made and one tumor fragment per mouse was transplanted with tweezers. The mice were monitored daily.
(§1) Tumor bearing animals were randomly allocated into 2 groups (N=10/group): PM14 administered at 1.25 mg/kg and placebo. All treatments were intravenously administered once a week for 3 consecutive weeks (days 0, 7 and 14).
Tumor measurements were determined using digital calipers (Fowler Sylvac, S235PAT). The formula to calculate volume for a prolate ellipsoid was used to estimate tumor volume (mm^3) from 2-dimensional tumor measurements:
Where, a: length (longest diameter) and b: width (shortest diameter) in mm of a tumor.
(§2) Tumor volume and animal body weights were measured 2-3 times per week starting from the first day of treatment.
When tumors reached ca. 190 mm^3, tumor bearing animals were randomly allocated into the following experimental groups (N=10/group):
Treatments were initiated on Day 0 and were intravenously administered once per week for 3 consecutive weeks (days 0, 7 and 14).
Tumor volume data from groups following the 1st, 2nd, 3rd, 4th and 5th weeks were compared using a two tailed Mann Whitney U test. The data are presented as medians and interquartile range (IQR).
Complete tumor regression (CR) was defined when tumor volume <63 mm^3 for 2 or more consecutive measurements. Survival statistical differences between groups were assessed by Kaplan Meier curves applying the log rank test.

[3] = MRI-H-121 mouse xenograft study, tolerability; type: in vivo, mice
Method: as §1, §2
Treatment tolerability was assessed by monitoring body weight evolution, clinical signs of systemic toxicity, as well as evidences of local damage in the injection site.
Treatments producing >20% lethality and/or 20% net body weight loss were considered toxic. Animals were euthanized when their tumors reached ca. 2,000 mm^3 and/or severe necrosis was seen.

COc1c(C)cc2c(c1O)[C@@H]1[C@@H]3[C@@H]4SC[C@]5(N[C@H](CO)Cc6c5[nH]c5ccccc65)C(=O)OC[C@@H](c5c6c(c(C)c(OC(C)=O)c54)OCO6)N3[C@@H](O)[C@H](C2)N1C [PM14, ECUBECTEDIN]
IC50 ([1]; Homo sapiens, 96 h, read-out: IC50, μM (geometric mean)): 0.004 µM | IC70, μM (geometric mean) [1]: 0.005 µM | Median survival time [2]: 32.5 days | antitumor activity [2]: very strong antitumor activity | TV, mm^3 median ([2]; Day 0): 190.8 mm^3 | TV, mm^3 median ([2]; Day 7, 1.25 mg/kg): 401.2 mm^3 | TV, mm^3 median ([2]; Day 14, 1.25 mg/kg): 472.7 mm^3 | TV, mm^3 median ([2]; Day 21, 1.25 mg/kg): 743.8 mm^3 | TV, mm^3 median ([2]; Day 28, 1.25 mg/kg): 1392 mm^3 | TV, mm^3 median ([2]; Day 35, 1.25 mg/kg): 2015 mm^3 | mortality ([3]; 1.25 mg/kg i.v. days 0, 7 and 14): No mortality | mean body weight reduction ([3]; Day 16, 1.25 mg/kg i.v. days 0, 7 and 14, reversible): ca. −15.0% | tolerability ([3]; MRI-H-121 tumor bearing animals, 1.25 mg/kg): well tolerated
